The results in this text go back to EP1304101A1, “Composition and method for use of pyridinium derivatives in cosmetic and therapeutic applications” (Torrent Pharmaceuticals Ltd, priority 2001, dated 2003).

The target of the experiment is T1, AGE-BSA (Bos taurus, UniProt P02769).
T1 construct: Bovine serum albumin (fraction V) (BSA); from tissue
As to the kind of experiment: In-vitro AGE breaking activity by ELISA (16 weeks AGE-BSA incubated with test compound). It is filed as biochemical, bovine. Conditions: for % Breakage: 37°C, 24 hours; for AGE breaking activity compared to PTB / potency (AGE breaking activity compared to PTB): comparison in words based on Table 2. In general terms: An ELISA detects its analyte on a solid surface through an enzyme-linked reagent.

Each structure is given as a SMILES string.

T1 sequence (P02769 25-607): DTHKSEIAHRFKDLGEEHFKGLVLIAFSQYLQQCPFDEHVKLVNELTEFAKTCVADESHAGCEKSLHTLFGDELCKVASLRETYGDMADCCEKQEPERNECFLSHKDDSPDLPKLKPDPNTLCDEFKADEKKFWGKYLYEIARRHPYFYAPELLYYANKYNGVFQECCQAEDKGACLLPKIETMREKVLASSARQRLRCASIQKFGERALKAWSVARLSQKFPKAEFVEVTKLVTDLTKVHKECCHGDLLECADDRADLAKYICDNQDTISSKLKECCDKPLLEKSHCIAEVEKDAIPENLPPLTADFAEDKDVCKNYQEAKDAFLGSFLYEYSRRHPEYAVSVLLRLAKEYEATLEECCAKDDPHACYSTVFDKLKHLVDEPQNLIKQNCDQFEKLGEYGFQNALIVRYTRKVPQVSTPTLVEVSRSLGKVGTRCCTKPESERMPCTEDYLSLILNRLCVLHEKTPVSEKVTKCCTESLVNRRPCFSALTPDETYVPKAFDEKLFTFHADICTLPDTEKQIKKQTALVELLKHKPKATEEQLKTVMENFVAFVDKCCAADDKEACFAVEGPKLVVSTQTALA
Procedure: AGE breaking activity has been confirmed by the screening procedure as mentioned below: • Materials: • Bovine serum albumin (fraction V) (BSA) • Glucose, analytical grade • Phosphate buffered saline (PBS) • Equipment: • Microplate ELISA Reader - Spectramax Plus (Molecular Devices, USA) • Microplate washer, (Bio -Tec Instruments, USA) • pH meter • Methods of experiment: Elisa (Enzyme Linked Immunosorbent Assay) 160 mg/ml of protein, bovine serum albumin, BSA and 1.6M glucose sugar were dissolved in phosphate buffered saline, PBS. Sodium azide was added at 0.02% concentration as a preservative. The solution was filtered asceptically through a 0.22 µM filter and kept for aging at 37°C for 16 weeks. After 16 weeks the solution was dialyzed against PBS, aliquoted and stored at - 20°C.
To determine the AGE breaking activity, 10 µg/ml of the 16 weeks AGE-BSA was incubated with different concentrations of the test compounds at 37°C for 24 hours and AGE breaking activity of the test compounds by ELISA was determined.
Different concentrations of 16 weeks AGE-BSA were coated on a microtitre plate as standard. Each concentration is coated in triplicates. • 2. The test samples were coated on microtitre plate at a concentration of 5 ng. to 20 ng per well in triplicates. • 3. The plate was incubated at 37°C for one hour. • 4. After incubation the plate was washed with PBST (PBS with 0.05% Tween 20). • 5. Blocking with 5% skimmed milk in PBS at 37°C for one hour was done. • 6. The plate was washed with PBST. • 7. Primary antibody against AGE-BSA was added and the plate is incubated at 37°C for one hour. • 8. The plate was washed with PBST • 9. Secondary antibody anti rabbit HRPO (Horse-Radish Per Oxidase) conjugate was added and the plate is incubated at 37°C for one hour. • 10. The plate was washed with PBST. • 11. Colour development with OPD (orthophenylenediamine dihydrochloride) and hydrogen peroxide was done. • 12. OD (optical density) at (450nm reading - 620nm reading) was measured after incubation at 37°C for 15 minutes with Microplate ELISA Reader.
The breaker activity of the compounds were determined by the following formula: % Breaker activity =(OD450-620 Control - OD450-620 Test)/(OD450-620 Control)x 100 [formula] OD450-620Control= Absorbance of 20ng AGE-BSA after incubation at 37°C for 24 hours without test compound OD450-620Test= Absorbance of 20ng AGE-BSA after incubation at 37°C for 24 hours with required concentration of test compound

`COCCNC(=O)c1ccc[n+](CC(=O)NC2CC2)c1.[Cl-]` [Compound 40, 1-(2-cyclopropylamino-2-oxoethyl)-3-(2-methoxyethylaminocarbonyl)-pyridinium chloride]: the “% Breakage” value (10 mM test compound) is listed as 12.38%.
On the same count and under the same terms, next, `O=C(NNC(=O)c1cccnc1Cl)c1ccc[n+](CC(=O)c2cccs2)c1` [Compound 42, 1-(2-thien-2'yl-2-oxoethyl)-3-(2-(2-chloro-3-pyridoyl)hydrazinocarbonyl) -pyridinium chloride]: 12.51%.
Same read-out and setting: next, `CC(C)NC(=O)C[n+]1cccc(C(=O)NNS(C)(=O)=O)c1.[Cl-]` [Compound 43, 1-(2-isopropylamino-2-oxoethyl)-3-(2-methylsulfonylhydrazinocarbonyl) -pyridinium chloride]: 10.85%.
For `COCCNC(=O)c1cc(Br)c[n+](CC(=O)c2cccs2)c1` [Compound 47, 1-(2-thien-2'-yl-2-oxoethyl)-3-((2-methoxyethyl)aminocarbonyl)-5-bromo pyridinium chloride], the “AGE breaking activity compared to PTB” value is “superior”. Further, under “10 mM test compound”, the “% Breakage” value turned out to be 32.38%.
`Cc1ccc(C(=O)NNC(=O)c2ccc[n+](CC(=O)c3cccs3)c2)c[n+]1CC(=O)c1cccs1` [Compound 49, 1-[1-(2-thien-2'-yl-2-oxoethyl)-6-methyl-3-carbonylpyridinium]-2-[1-(2-Thien-2' -yl-2-oxoethyl)-3-carbonylpyridinium] hydrazine dichloride]: the “AGE breaking activity compared to PTB” value is “superior” and the “potency (AGE breaking activity compared to PTB)” value is “significantly much higher”. For the same molecule, the “% Breakage” value (2.5 mM test compound) is 85.67%.
Turning to `CCOC(=O)C1CCCN1C(=O)C[n+]1cccc(C(=O)NNS(C)(=O)=O)c1.[Cl-]` (stereo not shown) [Compound 52, 1-(2-(2-ethoxycarbonylpyrrolidin-1-yl)-2-oxoethyl)-3-(methanesulfonyl hydrazinocarbonyl) pyridinium chloride], the “% Breakage” value (10 mM test compound) was found to be 25.34%.
On to `CS(=O)(=O)NNC(=O)c1cc(Br)c[n+](CC(=O)c2cccs2)c1` [Compound 53, 1-(2-thien-2'-yl-2-oxoethyl)-3-(methanesulfonyl hydrazinocarbonyl)-5-bromo pyridinium bromide], for which the “% Breakage” value (2.5 mM test compound) turned out to be 29.36%.
Consider `Cc1ccc(C(=O)NNS(C)(=O)=O)c[n+]1CC(=O)c1cccs1` [Compound 57, 1-(2-thien-2'-yl-2-oxoethyl)-3-(methanesulfonyl hydrazinocarbonyl) -6-methyl pyridinium bromide], for which, where the note is “1 mM test compound”, the “% Breakage” value was 77.69%.
As to `Cc1ccc(C(=O)C[n+]2cccc(C(=O)NNC(=O)c3ccc[n+](CC(=O)c4ccc(C)s4)c3)c2)s1` [Compound 58, N, N'-bis [3-carbonyl-1-(2-(5-methylthien-2-yl)-2-oxoethyl)pyridinium] hydrazine dichloride], the “% Breakage” value (10 mM test compound) turned out to be 81.95%.
On the same count and under the same terms, in the case of `CCOC(=O)C1CCCN1C(=O)C[n+]1cccc(C(=O)NNC(=O)c2ccc[n+](CC(=O)N3CCCC3C(=O)OCC)c2)c1` (stereo not shown) [Compound 59, N, N'-bis [3-carbonyl-1-(2-(2-ethoxycarbonyl pyrrolidin-1-yl)-2-oxoethyl)pyridinium] hydrazine dichloride] it was 20.31%.
As for `NC(=O)c1cc(C(=O)NNC(=O)c2ccc[n+](CC(=O)c3cccs3)c2)c[n+](CC(=O)c2cccs2)c1` [Compound 60, 1-[1-(2-thien-2'-yl-2-oxoethyl)-5-aminocarbonyl-3-carbonylpyridinium]-2-[1-(2-Thien-2'-yl-2-oxoethyl)-3-carbonylpyridinium] hydrazine dichloride], the “% Breakage” value (1 mM test compound) was found to be 95.36%.
Take `CCOC(=O)C1CSCN1C(=O)C[n+]1cccc(C(=O)NNS(C)(=O)=O)c1.[Cl-]` (stereo not shown) [Compound 61, 1-(2-(4-carboethoxy-thiazolidin-3-yl)-2-oxoethyl) -3-(methanesulfonyl hydrazinocarbonyl) pyridinium chloride]: the “% Breakage” value (10 mM test compound) was found to be 25.06%.
`O=C(NNC(=O)c1ccc[n+](CC(=O)c2ccc(Cl)s2)c1)c1ccc[n+](CC(=O)c2ccc(Cl)s2)c1` [Compound 62, N, N'-bis [3-carbonyl-1-(2-(5-chlorothien-2-yl)-2-oxoethyl)pyridinium] hydrazine dichloride]: the “AGE breaking activity compared to PTB” value is reported as “superior” and the “potency (AGE breaking activity compared to PTB)” value is listed as “significantly much higher”. In addition, the “% Breakage” value (10 mM test compound) came to 78.41%.
With `O=C(C[n+]1ccc(C(=O)NCCOC(=O)c2ccccc2)cc1)Nc1ccccc1.[Cl-]` [Compound 66, 1-(2-phenylamino-2-oxoethyl)-4-[2-(benzoyloxy)ethylaminocarbonyl] pyridinium chloride], the “% Breakage” value (10 mM test compound) was determined as 19.07%.
Still for that read-out and setting: in the case of `NC(=O)c1ccc[n+](CC(=O)c2cccs2)c1` [Compound 85, 3-Carbonylamino-1-(2-thien-2'-yl-2-oxoethyl)-pyridinium bromide] it was 3%; in that of `CCOC(=O)C[n+]1cccc(C(=O)NCCO)c1.[Br-]` [Compound 87, 1-(2-Ethoxy-2-oxoethyl)-3-((2-hydroxyethyl)aminocarbonyl) pyridinium bromide], 43%; in that of `CCCCNC(=O)c1ccc[n+](CC(=O)Nc2ccccc2)c1.[Cl-]` [Compound 94, 1-(2-Phenylamino - 2-oxoethyl) - 3 - (n-butylaminocarbonyl) pyridinium chloride], 27%.
Take `O=C(C[n+]1cccc(C(=O)NCCO)c1)Nc1ccccc1.[Cl-]` [Compound 95, 1-(2- Phenylamino - 2-oxoethyl)-3-((2-hydroxyethyl)aminocarbonyl) - pyridinium chloride]: under “20 mM test compound”, the “% Breakage” value was 48%.
Consider `O=C(C[n+]1ccsc1)c1ccccc1` [PTB, reference compound], for which the “% Breakage” value (10 mM test compound) was determined as 27% and the “% Breakage” value (20 mM test compound) was found to be 47%.
